Results reported in patent US12502379B2, “Ponesimod for avoiding worsening of fatigue-related symptoms in multiple sclerosis patients” (Vanda Pharmaceuticals Inc., priority 2019, dated 2025).

What was measured:
[1] = system: adult subjects with relapsing MS; test: Time to first 12-week confirmed disability accumulation (CDA) on EDSS; format: in vivo, human
Protocol: (§1) Secondary efficacy variables and testing strategy: Four secondary efficacy endpoints were analyzed as per the statistical testing strategy outlined in FIG. 1. • Change from baseline to Week 108 in fatigue-related symptoms as measured by the symptoms domain of the FSIQ-RMS patient-reported outcome [Fatigue] • Cumulative number of combined unique active lesions from baseline to Week 108 on brain MRI [CUALs] • Time to first 12-week confirmed disability accumulation (CDA) from baseline to EOS on Expanded Disability Status Scale (EDSS) [12-week CDA] • Time to first 24-week CDA from baseline to EOS on EDSS [24-week CDA]
A 12-week CDA is an increase of at least 1.5 in EDSS for subjects with a baseline EDSS score of 0.0 or an increase of at least 1.0 in EDSS for subjects with a baseline EDSS score of 1.0 to 5.0, or an increase of at least 0.5 in EDSS for subjects with a baseline EDSS score ≥5.5 which is to be confirmed after 12 weeks.
Baseline EDSS is defined as the last EDSS score recorded prior to randomization. The initial EDSS increase, meeting the above criteria, is defined as the onset of disability accumulation.
All EDSS measurements (with or without relapse, at a scheduled or unscheduled visit) were used to determine the onset of disability accumulation. […]

[2] = system: adult subjects with relapsing MS; test: FSIQ-RMS weekly symptoms score, change from baseline to Week 108; format: in vivo, human
Source text: In some embodiments, the patient-reported outcome questionnaire is the Fatigue Symptoms and Impact Questionnaire—Relapsing Multiple Sclerosis (FSIQ-RMS) (available from Mapi Research Trust). The FSIQ-RMS is an MS specific 20-item PRO measure that comprises 2 domains: one measuring MS symptoms and one measuring MS-related impacts. See Hudgens S, et al., Development and Validation of the FSIQ-RMS: A New Patient-Reported Questionnaire to Assess Symptoms and Impacts of Fatigue in Relapsing Multiple Sclerosis. Value Health. 2019 April; 22 (4): 453-466. doi: 10.1016/j.jval.2018.11.007. Epub 2019 Feb. 21. PubMed PMID: 30975397. With 7 symptom items and 13 impact items (in 3 impacts subdomains: physical, cognitive and emotional, and coping), the FSIQ-RMS is a comprehensive, valid, and reliable measure of fatigue-related symptoms and impacts in RMS patients. FIG. 2B depicts a conceptual framework for the FSIQ-RMS.
(§2) In some embodiments, the patient-reported outcome questionnaire is the symptom domain of the FSIQ-RMS. The FSIQ-RMS symptom domain (FSIQ-RMS-S) consists of seven items assessing fatigue-related symptoms with a recall period of 24 hours measured on an 11-point numeric rating scale; the standardized symptom domain score ranges from 0 to 100 with a higher score indicating greater fatigue. This domain (i.e., section 1 of the questionnaire) is completed on 7 consecutive days.
The patient-reported outcome questionnaire used for the below Examples is the Fatigue Symptoms and Impact Questionnaire-Relapsing Multiple Sclerosis (FSIQ-RMS). The FSIQ-RMS is an MS specific 20-item PRO measure that comprises 2 domains: one measuring MS symptoms (7 items) and one measuring MS-related impacts (13 items). The 7 symptom items and 13 impact items (in 3 impacts subdomains: physical, cognitive and emotional, and coping) are presented below.
For the MS symptoms domain, the FSIQ-RMS asks about a patient's fatigue-related symptoms of relapsing MS over the past 24 hours while doing routine daily activities (e.g., housework, yard work, shopping, working, etc.) for Items 1-6 or while at rest (e.g., reading a book, watching TV, etc.) for Item 7. Patients are asked to select a response on a scale of Oto 10 that best describes their experience and are asked to not skip any questions, with no answers being right or wrong.
as §1
as §2, with “The” for “In some embodiments, the patient-reported outcome questionnaire is the symptom domain of the FSIQ-RMS. The”
FSIQ-RMS was completed during the pre-randomization period, at Visits 6, 7, 10, and 12 (Weeks 12, 24, 60, 84), 14 (EOT), and at unscheduled visits due to relapses (R1, R2, etc.) or other unscheduled visits (U1, U2, etc.) as described below. If applicable, FSIQ-RMS was performed at the corresponding visits in the PTOP.
The completion of the FSIQ-RMS during the pre-randomization period was done as follows: At Visit 1 (Screening), subjects who appear eligible based on the assessments made during this visit (but prior to the results from the laboratory assessments are received) were provided with the electronic device containing the FSIQ-RMS. […]

[3] = patients with no prior DMT treatment within about two years, FSIQ-RMS weekly symptoms score
[4] = patients without Gd+T1 lesions at baseline, FSIQ-RMS weekly symptoms score

Compound: CCC/N=C1\S/C(=C\c2ccc(OC[C@H](O)CO)c(Cl)c2)C(=O)N1c1ccccc1C [Ponesimod, (R)-5-[3-chloro-4-(2,3-dihydroxy-propoxy)-benz[Z]ylidene]-2-([Z]-propylimino)-3-o-tolyl-thiazolidin-4-one]
- Time to first 12-week CDA, hazard ratio ([1]; ponesimod 20 mg vs teriflunomide 14 mg, stratified Cox regression): 0.83
- Reduction of the risk of 12-week CDA compared to teriflunomide 14 mg ([1]; ponesimod 20 mg, not statistically significant): 17%
- Change from baseline to Week 108 in FSIQ-RMS weekly symptoms score (mean) ([2]; MMRM, Full Analysis Set, increase = worsening, ponesimod 20 mg, teriflunomide 14 mg): −0.01
- Change From Baseline to Week 108: Stable or Improved ([2]; patients with baseline fatigue below the median, FSIQ-RMS weekly symptoms score): ~65%
- Change From Baseline to Week 108: Stable (−6.3 < x < +6.3) [2, 3]: 44.0%
- Change From Baseline to Week 108: Stable or Improved [2, 3]: about 75%
- Change From Baseline to Week 108: Improved (<−6.3) [2, 4]: 30.0%
- Change From Baseline to Week 108: Stable or Improved [2, 4]: about 68%
